Where a name gives a salt, the structure may show the parent alone.

Data set [1] deals with Male SD rats. As to the kind of experiment: Sedative and hypnotic effects after oral administration (gavage, righting reflex). The following applies: for Onset time / Duration: gavage, 0.16 μmoL/kg; for Onset time: disappearance of righting reflex; for Duration: until recovery of righting reflex. Details: key to Onset time / Duration: —: Disappearance of righting reflex was not observed. It counts as in vivo, rat. As for the experimental part: Each test drug was administered by gavage, at a dosage of 0.16 μmoL/kg for each drug. After gavage, the disappearance of the righting reflex was used as a sign of the hypnotic effect induced by the drug, and the recovery of the righting reflex was used as a sign of drug failure. The onset time and duration of the drug were observed.

The nature of data set [2]: Degradation of prodrug in rat plasma (release of dexmedetomidine, HPLC). It counts as in vitro ADME. As to conditions: 37° C. The procedure: The test prodrug was formulated as a 1 mg/mL of physiological saline solution, and then 100 μL of the prodrug solution was added to 900 μL of rat plasma. The test solution was vortexed for 30 s before incubation at 37° C. 50 μL of drug-containing plasma was collected at 0.5 min, 1 min, 2 min, 3 min, 5 min, 10 min, 15 min, 20 min, 30 min, and 60 min, respectively, to which was immediately added 150 μL of acetonitrile to terminate the enzymatic reaction, followed by adding the solution of internal standard telmisartan in methanol (30 μL, 20 μg/mL). Then, the resultant solution was centrifuged at 20000 rpm and 4° C. for 10 min. 100 μL of the supernatant was injected for detection by HPLC, and the concentration of dexmedetomidine was determined by an internal standard method. The degradation rate of the prodrug was calculated based on the concentration of dexmedetomidine. The chromatographic conditions are: Swell XDB C18 column (150 mm×4.6 mm, 5 μm); column temperature 30° C.; using gradient elution (see Table 1), mobile phase A: methanol, mobile phase B: 0.1% trifluoroacetic acid in water, and mobile phase C: acetonitrile; detection wavelength: 220 nm; flow rate: 1.0 mL/min; injection volume: 30 μL; retention time: 4.7 minutes for dexmedetomidine and 6.7 minutes for internal standard telmisartan. The linear range of dexmedetomidine: 2.5-100 μg/mL. Instruments: Waters 2695 high-performance liquid chromatograph, Waters 2996 photodiode array detector.

For data set [3], the system named is Male SD rats. The data set is described as follows: Hypnotic effect after tail vein injection (loss of righting reflex). It counts as in vivo, rat. As to conditions: for ED50: Rattus norvegicus, 50% of the dose for the disappearance of righting reflex in rats, tail vein injection; for Onset time: tail vein injection of 2× ED50, loss of righting reflex; for Onset time / Duration: rats; for Duration: tail vein injection of 2× ED50, until recovery of righting reflex. The procedure: Male SD rats, weighing 250-300 g, were randomly divided into groups, with 10 rats in each group. […] The onset times and the duration of hypnosis were recorded.

Data set [4] deals with Male SD rats. The data set is described as follows: Blood pressure change after tail vein injection (mean arterial pressure). As to conditions: dosage 2× ED50, injection within 15 seconds, 60 min recording, rats under isoflurane. As for the experimental part:
Male SD rats weighing 250-300 g were randomly divided into groups, with 10 rats in each group. General anesthesia was maintained by inhaling isoflurane. By intubating via femoral artery, blood pressure was monitored using the BL-420N biological signal collection and analysis system. minutes after blood pressure stabilization, the baseline mean arterial pressure (MAP0) was measured. Subsequently, the physiological saline solution of each test drug was injected via the tail vein (the dosage of each drug was the same as that in Experiment example 2, with a unified injection […] volume of 1 mL). […] All prodrug molecules were injected within 15 seconds. After injection of each drug, the change in blood pressure was continuously recorded for 60 min. […] The difference MAPΔ+ between the baseline mean arterial pressure (MAP0) and the highest mean arterial pressure (MAPmax) during the 60 min measurement time was calculated; the difference MAPΔ− between the baseline mean arterial pressure (MAP0) and the lowest mean arterial pressure (MAPmin) during the 60 min measurement time was also obtained; both of the difference values were used to calculate the maximum increase rate of mean arterial pressure +Δ%=MAPΔ+/MAP0*100% and the maximum decrease rate of mean arterial pressure −Δ%=MAPΔ−/MAP0*100%, respectively. The maximum increase rate of mean arterial pressure +Δ% and the maximum decrease rate −Δ% reflect the degree of blood pressure change that the body experienced after administration. The larger the value, the greater the blood pressure change that the body experienced.

Consider `CC(=O)OCn1cnc([C@@H](C)c2cccc(C)c2C)c1` [Compound 1-HCl], for which the Onset time is reported as 15 ± 6 min in the data set with Male SD rats [1] and 3.9 ± 1.5 min in the data set with Male SD rats [3]. In addition, the values for the Duration in the data set on Male SD rats [1] and with Male SD rats [3] were 17 ± 8 min and 42 ± 9 min, respectively. The “Degradation rate of prodrug %” value in data set [2] (0.5 min) is reported as 33%; in data set [2] (1 min) it was 68%; in data set [2] (2 min) it was 95%; in data set [2] (3 min) it was 100%. The 50% effect level in the data set with Male SD rats [3] (ED50) was put at a dose of 0.035 mg/kg. In the data set with Male SD rats [4], the “+Δ % (The maximum increase rate of blood pressure)” value is “*25 ± 12%”. In addition, the “−Δ % (The maximum decrease rate of blood pressure)” value in the data set with Male SD rats [4] turned out to be 43 ± 10%.

Regarding `Cc1cccc([C@H](C)c2cn(C(=O)OCC(C)C)cn2)c1C` [Compound 4-HCl], the values for the Onset time in the data set on Male SD rats [1] and with Male SD rats [3] were 14 ± 8 min and 2.3 ± 0.9 min, respectively. In addition, the Duration stood at 20 ± 13 min with Male SD rats [1] and 44 ± 8 min with Male SD rats [3]. In addition, the “Degradation rate of prodrug %” value in data set [2] (0.5 min) is 31%; in data set [2] (1 min), 86%; in data set [2] (2 min), 97%; in data set [2] (3 min) it was 100%; in data set [2] (5 min), 100%. In addition, in the data set on Male SD rats [3], the median effective dose (ED50) amounted to 0.038 mg/kg. Besides, the “+Δ % (The maximum increase rate of blood pressure)” value in the data set on Male SD rats [4] is 34 ± 14%. For the same compound, in the data set on Male SD rats [4], the “−Δ % (The maximum decrease rate of blood pressure)” value was 38 ± 9%.

With `Cc1cccc([C@H](C)c2c[nH]cn2)c1C.Cl` [Dexmedetomidine hydrochloride, reference compound], in the data set on Male SD rats [1] (equimolar doses, oral), the “hypnotic effect by oral administration” value is reported as “could not produce a hypnotic effect”. Besides, in the data set on Male SD rats [1], the Onset time result is listed as “—” and the Duration result was “—”. In addition, in the data set on Male SD rats [3], the median effective dose (ED50) worked out at 0.018 mg/kg, the Onset time came out at 1.5 ± 0.5 min and the Duration was found to be 53 ± 11 min.

(Values after patent US20240217936A1, “5-BENZY[…] AND PREPARATION METHOD THEREFOR AND USE THEREOF” (WEST CHINA HOSPITAL, SICHUAN UNIVERSITY, priority 2021, published 2024).)
